Molecules are shown by their SMILES.

The nature of this series: gradient 5% acetonitrile 3 min, to 50% in 2 min, to 85% in 15 min, held 3 min, 100 µL/min. As to conditions: column: Zorbax Extend-C18 2.1 x 50 mm; eluents: water / acetonitrile, 0.1% formic acid. The method, boiled down:
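Mixtures of ~100 pure standards were chromatographed on a Zorbax Extend-C18 column (2.1 × 50 mm, 1.8 μm) at 100 μL/min using water and acetonitrile, each with 0.1% formic acid. Detection used a quadrupole time-of-flight mass spectrometer in positive and negative ionization mode, and data collection spanned 3 months. Retention time was obtained from adduct peaks picked computationally and each checked manually.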
Molecule `CCOC(=O)c1cccc(NC(=O)c2cnc(-c3ccc(C)cc3)nc2-c2ccncc2)c1` displayed an RP-LC retention time of 1050 s. `Cc1ccc(-n2cc3c(N4CCCC(C(=O)NCc5ccc(C)c(C)c5)C4)ncnc3n2)cc1` (stereo not given) returned an RP-LC retention time of 772 s. `COc1ccc(CN2CCc3nc(N4CCN(c5ncccn5)CC4)ncc3C2)c(OC)c1` came in with an RP-LC retention time of 664 s.

On to `CCc1cccc(NC(=O)C2CC(=O)N(c3ccc4c(c3)CCN4C(C)=O)C2)c1` (stereo not given), for which the RP-LC retention time stood at 707 s. `CC(C)c1nncn1C1CCN(C(=O)c2cc(-c3cccs3)[nH]n2)C1` (stereo not given) yielded an RP-LC retention time of 617 s. The value for `CC(C)c1nnc(-c2ccc(=O)n(CC(=O)N3CCC4(CC3)OCCO4)c2)o1` was 609 s; that for `O=C(NCc1csc(C2CCCN(C(=O)c3ccc(F)cc3Cl)C2)n1)C1CC1` (stereo not given) was 756 s; that for `Cc1nn(C)c(C)c1S(=O)(=O)N1CCN(C(=O)C(C)Oc2ccccc2)CC1` (stereo not given) was 761 s.

Consider `O=C(NCCC1CCN(C(=O)Nc2ccccc2)CC1)c1ccoc1`, for which the RP-LC retention time worked out at 704 s.

`COc1ccccc1C(CNC(=O)c1cc(=O)c2ccccc2o1)N(C)C` (stereo not given) gave an RP-LC retention time of 606 s.

As for `Cn1nc(N2CCC(NC(=O)CCC3CCCC3)C2)ccc1=O` (stereo not given), the RP-LC retention time worked out at 716 s. On to `O=S(=O)(NCCc1noc(-c2ccccc2)n1)c1cccs1`, for which the RP-LC retention time stood at 849 s. In the case of `CCc1ccc(CNC(=O)Cn2ccc3ccc(N4CCCCC4)nc32)cc1` it was 999 s; in that of `Cc1ccc(NC(=O)Cn2nc3c(Oc4ccccc4C)nccn3c2=O)c(C)c1`, 873 s; in that of `Brc1ccc2nc(N3CCNCC3)sc2c1`, 557 s. In turn, `O=C(C1=CN(c2ccc(F)cc2)c2cc(Cl)ccc2S1(=O)=O)N1CCCC1` registered an RP-LC retention time of 844 s. `O=C1C2N=NN(Cc3nc(-c4ccccc4)no3)C2C(=O)N1c1ccccc1` (stereo not given) came in with an RP-LC retention time of 906 s.

On to `CCCN1C(=O)COc2ccc(-c3noc(-c4cccc5[nH]ccc45)n3)cc21`, for which the RP-LC retention time is 1070 s. `CCN(C(=O)Cn1c(CNC(=O)c2ccco2)nc2ccccc21)c1ccccc1` came in with an RP-LC retention time of 687 s. In the case of `O=C1CCCc2cc(S(=O)(=O)NCCCN3CCN(c4ccccc4F)CC3)ccc2N1` it was 621 s; in that of `CCCNC(=O)CN1CCN(Cc2ccc(F)cc2)C1=O`, 688 s; in that of `CCOC(=O)c1c(C)[nH]c(CCC(=O)NCc2ccc(SC)cc2)c1C`, 714 s. In the case of `Nc1nc(N2CCC3(CC2)OCCO3)ncc1C(=O)NCc1ccccc1F` it was 651 s; in that of `COc1cc(NC(=O)N2CCc3cn(C)c4cccc(c34)C2)cc(OC)c1`, 713 s. In the case of `COC(=O)c1c(C)[nH]c(C(=O)N2CCCC(C(=O)NCCC3=CCCCC3)C2)c1C` (stereo not given), the RP-LC retention time was determined as 825 s. `CC1CCN(S(=O)(=O)c2ccc(-c3nnc(C(=O)NCCc4cccs4)o3)cc2)CC1` gave an RP-LC retention time of 1060 s. As to `CC(C)n1cnc(S(=O)(=O)N2CCCC(C(=O)NCCCc3ccccc3)C2)c1` (stereo not given), the RP-LC retention time came out at 806 s. Molecule `COc1ccc(-c2csc(CN3CCN(C(=O)c4c(F)cccc4Cl)CC3)n2)cc1` came in with an RP-LC retention time of 805 s.

Turning to `CCOC(=O)c1c(C)[nH]c(C(=O)N2CCCC(C(=O)N3CCOCC3)C2)c1C` (stereo not given), the RP-LC retention time was 672 s. `Cc1ccc(NC(=O)N2CCc3nc[nH]c3C2)cc1Cl` came in with an RP-LC retention time of 612 s. For the molecule `COc1ccc(OC)c(NC(=O)NCC(=O)N2CCc3ccccc32)c1`, the RP-LC retention time was 804 s.

Take `Cc1ccn2c(NC(=O)c3cccc(F)c3)c(-c3ccccc3)nc2c1`: the RP-LC retention time was found to be 670 s. The value for `Cc1cc(C)c(C)c(S(=O)(=O)NCC2(c3cccs3)CCOCC2)c1C` was 1050 s; that for `Cc1sc2cc(C(=O)NCCN(C)C)[nH]c2c1CN1CCCCC1` was 536 s; that for `CC(C)Cc1ccc(S(=O)(=O)N2CCC3(CCC(CN4CCN(C)CC4)O3)CC2)cc1` (stereo not given) was 688 s. On to `CCN1CCN(CCCNC(=O)c2ccc(CS(=O)c3ccc(Cl)cc3)o2)CC1` (stereo not given), for which the RP-LC retention time was 569 s. Turning to `CCOC(=O)N1CCN(C(=O)CSc2nc(-c3cccc(C)c3)ns2)CC1`, the RP-LC retention time turned out to be 941 s. `CCOc1ccccc1NC(=O)C1CCN(S(=O)(=O)c2cn(CC)cn2)CC1` displayed an RP-LC retention time of 784 s. Molecule `CSc1ccc(-c2nc3cnccn3c2Nc2ccc(C(=O)N3CCOCC3)cc2)cc1` displayed an RP-LC retention time of 708 s. `CCOc1ccc(OCC)c(NC(=O)CSc2cc(N3CCC(C(=O)NC4CC4)CC3)ncn2)c1`: the RP-LC retention time was 860 s. `Cc1cc2c(=O)n(CC(=O)Nc3ccc(F)c(F)c3)ccc2s1` came in with an RP-LC retention time of 826 s. The value for `Cc1nn(-c2ccc(Cl)cc2)c2sc(C(=O)O)cc12` was 1010 s; that for `Cc1cccc(C)c1Nc1c(-c2ccccc2)nc2ncccn12` was 786 s; that for `Cc1ccccc1NC(=O)Cn1nc(N2CCOCC2)c2ccccc2c1=O` was 774 s. In the case of `CCCc1cc(C2CCCN2C(=O)Nc2cccc(C)c2)no1` (stereo not given) it was 945 s; in that of `COc1cc(=O)n2c(c1C(=O)Nc1ccc(Br)c(C)c1)CCCC2`, 833 s; in that of `CCN1C(=O)c2cccnc2Sc2cc(NC(=O)Cc3ccc(C)cc3)ccc21`, 855 s. For `CC(C)c1ccc(NC(=O)Cn2nc(C(=O)N3CCCC3)c3ccccc32)cc1`, the RP-LC retention time is 991 s. In turn, `Cc1nc(CC(=O)Nc2ccc(F)c(Cl)c2)sc1C(=O)NC1CC1` gave an RP-LC retention time of 759 s.

`CC(C)(C)CN(C(=O)c1ccc(F)cc1)c1ccncc1` returned an RP-LC retention time of 640 s. In turn, `COC(=O)c1cccc(NC(=O)NC2CCN(c3ccc(C)c(C)c3)C2=O)c1` (stereo not given) registered an RP-LC retention time of 847 s. Regarding `Cc1nc2ccccc2c(=O)n1Cc1noc(Cc2ccc(Br)cc2)n1`, the RP-LC retention time came to 917 s. In the case of `COc1ccc(C2Cn3cnc(C(=O)N4CCC(C(=O)Nc5ccc(C)cc5C)CC4)c3CO2)cc1` (stereo not given) it was 740 s; in that of `CCOC(=O)CSc1nnc(NC(=O)COc2ccccc2)s1`, 798 s. The value for `CCCNC(=O)c1cc(C)nc2ccc(Cl)cc12` was 719 s; that for `CC(C)Cn1cc(S(=O)(=O)Nc2cccc(Cl)c2)c2cccnc21` was 912 s. For the molecule `CC1=C(c2ccc(C)c(C)c2)S(=O)(=O)N=C1N1CCCN(C(=O)NCCC(C)C)CC1`, the RP-LC retention time was 906 s. As to `Oc1ccccc1-c1nc2ccc(Cl)cn2c1Nc1ccc2c(c1)OCCO2`, the RP-LC retention time was determined as 879 s. Molecule `O=C(c1cn2c(n1)CCCC2)N1CCN(c2ccc(Cl)cc2)CC1` returned an RP-LC retention time of 648 s. The value for `CCc1nc(-c2csc(S(=O)(=O)N3CCCC(C(=O)NC4CCCCCCC4)C3)c2)no1` (stereo not given) was 1150 s; that for `COc1ccc(-c2noc(C3CC(=O)N(c4ccc(Cl)cc4)C3)n2)cc1OC` (stereo not given) was 950 s. As for `CC(C)S(=O)(=O)c1ccc(Cc2nnc(NC(=O)C3=COCCO3)o2)cc1`, the RP-LC retention time came out at 616 s. The value for `CCC(=O)Nc1cccc(-c2noc(C3CCN(C(=O)CCc4c[nH]c5ccccc45)CC3)n2)c1` was 869 s; that for `COC(=O)c1c(C)[nH]c(C(=O)N2CCC(CC(=O)NCCCN3CCOCC3)CC2)c1C` was 575 s. Turning to `COc1ccc(-c2cc(C(=O)N3CCCC3c3cc(C)on3)on2)cc1` (stereo not given), the RP-LC retention time came out at 865 s. Molecule `CC1CCN(S(=O)(=O)N2CCC(C(=O)N3CCCC(c4nc(C5CCOCC5)no4)C3)CC2)CC1` (stereo not given) gave an RP-LC retention time of 878 s. In turn, `Cc1cccc(CN2CCCN(c3ncccc3-c3nc(C4CC4)no3)CC2)c1` showed an RP-LC retention time of 732 s. Consider `COCCN(CC(=O)N1CCc2sccc2C1COc1cccc(F)c1)C(=O)C1CCCC1` (stereo not given), for which the RP-LC retention time amounted to 999 s.

Consider `CCC(C(=O)N1CCN(C)CC1)n1c2ccccc2c2cnn(C)c(=O)c21` (stereo not given), for which the RP-LC retention time was found to be 627 s. Regarding `Cc1oc(-c2ccc(NC(=O)C3CCCCC3)cc2)nc1Cn1cccn1`, the RP-LC retention time came to 924 s. Take `O=C(c1cc2ccccc2[nH]1)N1CCN(c2cc(-c3cccs3)[nH]n2)CC1`: the RP-LC retention time was found to be 832 s. `Nc1nc(N2CCCC2)nc2ccccc12`: the RP-LC retention time was 592 s. In turn, `COc1ccccc1NC(=O)N1CCC(n2cnc3ccccc3c2=O)CC1` displayed an RP-LC retention time of 736 s. For the molecule `Cc1ccc(CN2CCN(C3CCN(C(=O)Nc4ccc5c(c4)OCO5)CC3)C2=O)cc1`, the RP-LC retention time stood at 841 s. With `COc1cc(-c2noc(CN3C(=O)COc4cc(Cl)ccc43)n2)cc(OC)c1OC`, the RP-LC retention time is 1020 s. In turn, `O=C(NCc1ccc(F)cc1)c1cn2cc(Cl)ccc2n1` showed an RP-LC retention time of 799 s. As to `COc1ccccc1CNC(=O)C1CCCN(c2nnc3cccc(C)n23)C1` (stereo not given), the RP-LC retention time amounted to 688 s. `CCc1nc(-c2csc(S(=O)(=O)N3CCCC(C(=O)Nc4ccc(Cl)cn4)C3)c2)no1` (stereo not given): the RP-LC retention time was determined as 1080 s. The molecule `CCc1cc(=O)n(CC(=O)Nc2ccc(C)cc2C)c(N)n1` displayed an RP-LC retention time of 631 s.

`CCCNc1cc(N2CCC(CCC(=O)Nc3ccc(OC)cc3OC)CC2)ncn1` had an RP-LC retention time of 648 s.
